Molecules are shown by their SMILES.

Assay [1] deals with mouse splenocytes (basal). The assay can be described thus: Basal mouse splenocyte viability, alamar blue. The assay is classed as cell-based. The conditions noted are these: 2.5-10 μM, 48 hr. How it is done:
Mouse splenocytes were isolated from C57b1 healthy female mice. Cells (10,000/well) were tested under basal and ConA stimulation. Cells were treated with vehicle, dexamethasone or antidepressants (2.5-10 μM). Viability was assessed 48 hr later using alamar blue staining. (Reagents were manufactured by Wildflower, Santa Fe, N. Mex., USA.) Alamar blue assay was performed as in Nociari et al (1998).

Assay [2] relates to TH1 cytokines TNF-α, IL2 and INFγ. The assay can be described thus: TH1 cytokine secretion (TNF-α, IL2, INFγ) from Con-A-induced splenocytes, ELISA. The assay is classed as cell-based, mouse. The conditions noted are these: 2.5-10 μM, 48 hours, 1×10^6 cells/well. As for the experimental part:
Effect of paroxetine, (SSRI) and clomipramine (TCA) as compared to dexamethasone on Con-A-induced splenocyte proliferation (alamar blue method), and splenocyte-induced secretion of TH1 cytokines TNF-α, IL2 and INFγ, 1×10^6 cells/well, was measured 48 hours after exposure to drugs (2.5-10 μM).
Cytokines were determined in the supernatant of the splenocyte specimens using an ELISA kit and protocol (Reagents by Cytolab). […] The pattern observed resembles that of dexamethasone.
(In general: ELISA stands for enzyme-linked immunosorbent assay.)

The next assay has as its system human PBMC. Nature of the assay: Viability of LPS-exposed human PBMC, alamar blue. The conditions noted are these: LPS 2 ug/well, 2.5-30 μM, 48 hours, both subjects. The assay is classed as cell-based. (The colour change of resazurin is a common sign of viable cells or microbes.)
In assay [3] the test system is DSS-induced acute colitis. The assay can be described thus: Rat model of DSS-induced acute colitis. The assay is classed as in vivo. The conditions noted are these: for number of days with significant DAI difference vs control: 9 days in water-treated DSS group. As for the experimental part:
Potential anti-IBD effect of two different doses of paroxetine, namely 0.2% and 0.4% was assessed in the rat model of DSS-induced acute colitis (DSS—dextran sulfate sodium). The use of DSS is a well-defined method for the induction of colitis' in animals. DSS can be controlled more precisely regarding molecular weight distribution, grade of sulfate incorporation and impurities than other agents typically used to achieve the same clinical end-point. This reagent model is suitable for screening of new drugs as it uses small animals, the oral administration of the agent is convenient to use in large groups of animals and the induced colitis responds to treatment with conventional drugs (see for example Axelsson et al, 1993).
Paroxetine (oral suspension, protected from light at or below 25° C.) was administered at two respective doses of 7.5 and 15 mg/kg by one daily repeated oral gavage (PO) for 16 days. Colitis induction commenced two days following initiation of treatment by continuous exposure ad libitum of the test animals to 3% DSS (36-50 kDa) in their drinking water (chlorinated and acidified, pH range of 5.1-5.9, freshly prepared on even test days). […] Two additional paroxetine-treated non-DSS induced groups were likewise treated with the same selected does to detect any unforeseen paroxetine related effects. Test groups comprised either n=8 (DSS induced) or n=4 (non-DSS induced) male Sprague Dawley (SD) rats (healthy, young […] weeks of age, total of 36 animals).
Evaluation of anti-IBD effect was based on the following […] parameters: a. Daily clinical scoring of the characteristic experimental colitis signs, consisting of body weight loss, altered fecal consistency and hematochezia and expressed as Disease Activity Index (DAI); b. Body weight determination; c. Colon length; d. Macroscopic colon lesions scores noted at necropsy; and e. microscopic colon lesions score.
The histological scoring system for the 3% DSS-induced colonic inflammation is shown below in Tables 1 and 2:
Final data evaluation was carried out by statistical analysis of differences between mean group values for each of the above listed parameters in the DSS-induced groups vs. respective mean values in the water-treated non-DSS induced group.

Method for human PBMC: Human PBMC were isolated from whole blood of 2 healthy volunteers (A and B subjects). Cells (2×10^6/ml) were exposed to LPS (2 ug/well) and treated with either the vehicle, or with paroxetine, sertraline, clomipramine and trifluoperazine (2.5-30 μM).

Consider `Fc1ccc([C@@H]2CCNC[C@H]2COc2ccc3c(c2)OCO3)cc1` [paroxetine], for which the basal splenocyte proliferation entry in assay [1] is on record as “dose dependent decrease”. In assay [2], the “lymphocyte-induced pro-inflammatory cytokine secretion” value was “decrease”. The “order of potency, decrease in cell viability” value in the assay with human PBMC is recorded as “sertraline>paroxetine>trifluoperazine>/=clomipramine”. Moreover, in assay [3] (both doses (7.5 and 15 mg/kg PO), DSS-induced), the “mean body weight vs respective control” value was “did not reach statistical significance”. Further, the “mean colon length vs water-treated non-DSS induced group” value in assay [3] (both doses, p<0.05) was “significantly shorter”. Moreover, in assay [3] (both doses, differences not statistically significant), the “medians of histopathological scores (lateral and in-depth extension)” value is given as “lower than for the control group”. Also, the “day of peak DAI score” value in assay [3] (both paroxetine-treated DSS-induced groups) was determined as 10 days. Moreover, the “mean macroscopic colon score vs control” value is recorded as “did not significantly differ” in assay [3] (high dose) and “significantly higher” in assay [3] (low dose, p<0.01). The figures for the “number of days with significant DAI difference vs control” value in assay [3] (high paroxetine dose) and in assay [3] (low paroxetine dose) were 6 days and 5 days, respectively. Further, the mortality result in assay [3] (high-dose (15 mg/kg PO) DSS-induced group) is reported as “No mortality”; in assay [3] (the dose paroxetine-treated DSS-induced group, n=8, PO daily 16 days) it was “one”. For the same compound, in assay [3] (oral suspension, 7.5 and 15 mg/kg), the “overall anti-IBD effect” value was “trend of anti-IBD effect with a dose-response”.

The values are drawn from patent US20080318931A1, “Treatment of Disorders and Diseases of the Colon” (priority 2004, published 2008).
